One assay deals with avocado fruit. The assay can be described thus: Chilling injury of coated avocados stored at optimal (5° C.) and sub-optimal (2° C.) temperature. It is filed as in vivo, 'Ettinger' avocado. Conditions: 21 d at 2° C. or 5° C., followed by one week at 22° C.; index 0-3. Here is the method:
Three series of experiments were conducted. In each experiment the coated avocados were compared with uncoated fruits. The first experiment included seven edible coating formulations: carboxymethyl cellulose (CMC) (1% w/v), methylcellulose (MC) (1% w/v), hydroxypropyl methylcellulose (HPMC) (1% w/v), chitosan (1% w/v), alginate (1% w/v), and CMC with stearic acid (CMC+SA) (1% w/v and 0.6% w/v, respectively). The second, and third experiments included five edible coating formulations including phenylalanine, chitosan, CMC+SA, chitosan with phenylalanine, and CMC+SA with phenylalanine. In experiments 1-2 each treatment group included 8 avocados kept in cardboard boxes. In these experiments the fruit were stored for 14 and 12 days respectively at 20° C. (shelf-life conditions). In experiment 3 each treatment group included 14 avocados kept in cardboard boxes. The formulations of the edible coatings were applied to the fruit using paintbrushes. […] Internal browning: Internal browning was determined by cutting each fruit for half, lengthwise, at the end of each experiment, and assessing the visual appearance of the fruit Internal browning. Internal browning was evaluated on a 0-3 scale, in which 0=no internal browning and 3=sever internal browning. […] Blackening and pitting of the skin surface, as well as internal browning, were assessed to measure chilling injury. […]

Assay [1] deals with stem-end rot and side rot of avocado fruit. Nature of the assay: Effect of coatings with and without Phe on avocado decay (stem-end rot, side rot, total decay incidence). Conditions: avocado stored 12 d at 22° C. It is filed as in vivo, 'Fuerte' avocado. Here is the method: Three series of experiments were conducted. In each experiment the coated avocados were compared with uncoated fruits. The first experiment included seven edible coating formulations: carboxymethyl cellulose (CMC) (1% w/v), methylcellulose (MC) (1% w/v), hydroxypropyl methylcellulose (HPMC) (1% w/v), chitosan (1% w/v), alginate (1% w/v), and CMC with stearic acid (CMC+SA) (1% w/v and 0.6% w/v, respectively). The second, and third experiments included five edible coating formulations including phenylalanine, chitosan, CMC+SA, chitosan with phenylalanine, and CMC+SA with phenylalanine. In experiments 1-2 each treatment group included 8 avocados kept in cardboard boxes. In these experiments the fruit were stored for 14 and 12 days respectively at 20° C. (shelf-life conditions). In experiment 3 each treatment group included 14 avocados kept in cardboard boxes. […] Determination of decay incidences: Stem end rot (SER) was determined at the end of each experiment by assessing the visual appearance of the fruit stem end. SER was evaluated on a 0-3 scale, in which zero=no SER and three=severe SER. […] Side rot (Alternaria rot and anthracnose) was evaluated at the end of each experiment on a 0-3 scale, in which zero=no side rot and three=severe rot. […] Total decay incidences were determined by calculating the percentage of decayed fruit at the end of each experiment per treatment. […]

Entries after “also recorded” stand apart in the source; their conditions may differ.

The source of these data is patent US20230287234A1, “EDIBLE COATINGS FOR MAINTAINING FRUIT QUALITY” (The State of Israel, Ministry of Agriculture & Rural …, priority 2020, published 2023).

For `N[C@@H](Cc1ccccc1)C(=O)O` [Phe, phenylalanine], the chilling injuries symptoms entry in the assay on avocado fruit is reported as “reduced the appearance of chilling injuries”. The “decay incidence and severity (stem-end rot and side rot)” value in assay [1] was “some effect on reducing fruit decay incidence and severity; also recorded: increased its resistance to postharvest decay”; in assay [1] (listed as Phenylalanine), “did not show clear protection effects”.
